Assays:
[1] = molecular target: T1, delta opioid receptor of NG 108-15 cells (Mus musculus, UniProt P32300); assay: biochemical; assay type: binding
T1 construct: NG 108-15 cells, which express the delta opioid receptor naturally; endogenous in cells; host or cells: NG 108-15 cells (membranes)

[2] = molecular target: K56 receptor (mouse delta opioid receptor) (Mus musculus, UniProt P32300); assay: biochemical
K56 receptor (mouse delta opioid receptor), sequence (P32300 whole entry): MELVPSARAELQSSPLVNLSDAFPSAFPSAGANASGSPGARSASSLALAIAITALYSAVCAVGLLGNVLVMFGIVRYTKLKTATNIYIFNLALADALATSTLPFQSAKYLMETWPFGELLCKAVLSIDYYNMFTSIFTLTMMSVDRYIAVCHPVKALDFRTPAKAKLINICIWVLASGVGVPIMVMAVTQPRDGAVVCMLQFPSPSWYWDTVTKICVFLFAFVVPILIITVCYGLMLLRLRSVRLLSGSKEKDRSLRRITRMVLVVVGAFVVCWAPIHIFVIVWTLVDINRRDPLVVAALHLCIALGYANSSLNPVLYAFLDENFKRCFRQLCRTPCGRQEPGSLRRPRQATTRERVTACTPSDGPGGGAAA

T1 sequence (P32300 whole entry): as above

## CCC12CCN(CC3(O)CC3)C(Cc3ccc(O)cc31)C2(C)C (stereo not shown) [Bremazocine, bremazocine]
[1]
  Ki: 1.78 nM
[2]; PKi Cos K56
  Ki: 5.62 nM
[2]; inhibition constant Ki
  Ki: 5.7 nM

## CN1CC[C@]23CCCC[C@H]2[C@H]1Cc1ccc(O)cc13 [Levorphanol, levorphanol]
[2]; inhibition constant Ki
  Ki: 20.9 nM

Reference: US7297771B2 (priority 1992, dated 2007)
